Laboratory results taken from article PMC7381740 (Theranostics, 2020).
“And” between values parts separate entries of the source, which are not always exact repeats. Identical values can stand only once.

Assays:
[1] = target: σ1 receptor (S1R); details: cited from earlier work
[2] = target: T1, S1R (Rattus norvegicus, UniProt Q9R0C9); test: PET-CT brain uptake at baseline; details: for maximum brain uptake: PET time-activity curve; for average uptake (sum-image 20-60 min post-injection): baseline
T1 sequence (Q9R0C9 whole entry): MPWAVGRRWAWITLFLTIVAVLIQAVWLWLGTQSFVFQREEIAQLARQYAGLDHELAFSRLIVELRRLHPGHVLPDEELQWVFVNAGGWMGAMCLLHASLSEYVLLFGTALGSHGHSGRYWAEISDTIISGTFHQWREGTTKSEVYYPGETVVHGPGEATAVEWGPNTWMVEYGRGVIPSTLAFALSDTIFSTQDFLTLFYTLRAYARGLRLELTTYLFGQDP

[3] = Metabolite analysis in plasma and brain (radio-HPLC after i.v. injection); type: in vivo, rat
Protocol: Blood samples were collected at 1, 2, 5 min post-injection and at 10, 20, 40 or 60 min post-injection when the animals were sacrificed. Seven animals used for metabolites analysis were also scanned for 60 min. Plasma was isolated by centrifugation (3 min, 3000 × g at 4 °C). Two hundred µL of CH3CN was added to 200 µL of serum for protein precipitation and after centrifugation (3 min, 3000 × g at 4 °C), 100 µL of supernatant was injected into the HPLC for quantification (HPLC equipment: Shimadzu prominence with a UV detector and bespoke Scintillation detector; column: ACE 3 C18 HL, [Hichrom], 150 × 4.6 mm; porosity: 3 μm; solvent A: 0.1 M ammonium acetate; solvent B: CH3CN, isocratic elution: 50:50 (A/B) in 15 min; flow rate: 1 mL/min; room temperature; absorbance detection at λ = 254 nm). Animal brains were removed and then homogenised by ultra-Turrax® in 2 mL of ice-cold acetonitrile. After centrifugation (3 min, 9000 × g at 4 °C), the supernatant was separated from the pellet. One hundred microliters of brain supernatant were injected on the HPLC column (same conditions as above). Control samples were spiked with 15 µL of stable standard. The parent radiotracer eluted at 11 minutes.

[4] = target: T1, S1R; test: Autoradiography in AMPA-injected rat brain sections; type: binding; details: striatum (caudate-putamen + globus pallidus), AMPA rats
Protocol: Animals were maintained normothermic (body temperature: 37.0 ± 0.4 °C) during the surgery through the use of a heating blanket (Homeothermic Blanket Control Unit, Harvard Apparatus Limited®, Edenbridge, Kent, UK). Twenty-four hours later, the rats were anesthetized again as described above and scanned with a 3T cryogen-free MRS 3000 scanner with a quadrature, rat head coil (MR Solutions, Guildford, UK), [35] to assess oedema (i.e. lesion size and location) immediately before the PET scan. Parameters for the T2-weighted RARE sequence were: repetition time = 4800 ms, base echo time = 17 ms, effective echo time = 68 ms, number of echoes = 8, bandwidth = 20 kHz, number of samples = 256, number of views = 240, number of averages = 1 with 25 slices of 1.06 mm, giving a final voxel size of 0.136 × 0.136 × 1.06 mm.
Sections of frontal (Brodmann areas 8/9) and temporal cortex (Brodmann areas 21/22) were cut from frozen human tissue blocks. […] Autoradiographs were analysed using AIDA software (Raytest GmbH, Germany). […] Specific binding (total binding minus non-specific binding) in each ROI is expressed as intensity of the photostimulated luminescence (PSL) per pixel.
Specific binding in the ipsi- and contralateral striatum in the rat AMPA model was analysed with a paired t-test.

In the case of `FCCOc1ccc(CN2CCN(Cc3cc4ccccc4o3)CC2)cc1` [^18F-IAM6067, N-(2-Benzofuranylmethyl)-N'-[4-(2-fluoroethoxy)benzyl]piperazine], the Ki [1] is given as 2.6 nM, the maximum brain uptake ([2]; amygdala) is given as 3.3 SUV and the “average uptake (sum-image 20-60 min post-injection)” value (shortened to “average uptake”) ([2]; caudate/putamen) is given as 2.3 ± 0.1 SUV. The “average uptake” value ([2]; cingulate cortex) was 2.3 ± 0.2 SUV, the “average uptake” value ([2]; mesencephalic region) was 4.7 ± 0.3 SUV and the “average uptake” value ([2]; pons-raphe) was 6.4 ± 0.8 SUV. For the same compound, the “average uptake” value ([2]; substantia nigra) was 3.8 ± 0.7 SUV, the “average uptake” value ([2]; temporal cortex) was 2.5 ± 0.2 SUV and the “average uptake” value ([2]; thalamus medio-dorsal) was 3.9 ± 0.4 SUV. The “time of maximum brain uptake” value ([2]; post-injection, amygdala and thalamus medio-dorsal) was 2.25 min, the maximum brain uptake ([2]; thalamus medio-dorsal) was 5.5 SUV and the “Percentage of ^18F-IAM6067 and metabolites” value (from here on “Percentage”) ([3]; rat brain, 10 min post-injection) was 91.3±3.7%. The “Percentage” value ([3]; rat brain, 20 min post-injection) was 94.1±2.8%, the “Percentage” value ([3]; rat brain, 60 min post-injection) was 91.3±6.0% and the “Percentage” value ([3]; rat plasma, 1 min post-injection) was 88.8±12.1%. For the same compound, the “Percentage” value ([3]; rat plasma, 2 min post-injection) was 58.3±4.1%, the “Percentage” value ([3]; rat plasma, 5 min post-injection) was 22.4±11.6% and the “Percentage” value ([3]; rat plasma, 10 min post-injection) was ~10%. For the same compound, the “Percentage” value ([3]; rat plasma, 10 min post-injection, listed as Parent) was 10.1±8.6%, the “Percentage” value ([3]; rat plasma, 20 min post-injection) was ~10% and the “Percentage” value ([3]; rat plasma, 20 min post-injection, listed as Parent) was 9.8±4.2%. The “Percentage” value ([3]; rat plasma, 60 min post-injection) was “not detectable”, the “Percentage” value ([3]; rat plasma, 60 min post-injection, listed as Parent) was 0.0% and the “change in ^18F-IAM6067 specific binding, ipsi- vs contralateral” value [4] was -38 ± 8% and -38%.
